Molecules are shown by their SMILES. Structures can show the parent of a compound that is named as a salt. Bounds are passed on as bounds.

For the first test, the target named is ROCK1 (Homo sapiens (Human), UniProt Q13464). Briefly: FRET-based Z'-Lyte kinase assay, ROCK1.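 Note: kinase phosphorylates a coumarin/fluorescein-labelled FRET peptide, then a protease cleaves unphosphorylated peptide, progress read as donor to acceptor emission ratio after 400 nm excitation.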 It is filed as biochemical. As to conditions: 50 μM compound.
ROCK1, sequence (Q13464 whole entry, species assumed): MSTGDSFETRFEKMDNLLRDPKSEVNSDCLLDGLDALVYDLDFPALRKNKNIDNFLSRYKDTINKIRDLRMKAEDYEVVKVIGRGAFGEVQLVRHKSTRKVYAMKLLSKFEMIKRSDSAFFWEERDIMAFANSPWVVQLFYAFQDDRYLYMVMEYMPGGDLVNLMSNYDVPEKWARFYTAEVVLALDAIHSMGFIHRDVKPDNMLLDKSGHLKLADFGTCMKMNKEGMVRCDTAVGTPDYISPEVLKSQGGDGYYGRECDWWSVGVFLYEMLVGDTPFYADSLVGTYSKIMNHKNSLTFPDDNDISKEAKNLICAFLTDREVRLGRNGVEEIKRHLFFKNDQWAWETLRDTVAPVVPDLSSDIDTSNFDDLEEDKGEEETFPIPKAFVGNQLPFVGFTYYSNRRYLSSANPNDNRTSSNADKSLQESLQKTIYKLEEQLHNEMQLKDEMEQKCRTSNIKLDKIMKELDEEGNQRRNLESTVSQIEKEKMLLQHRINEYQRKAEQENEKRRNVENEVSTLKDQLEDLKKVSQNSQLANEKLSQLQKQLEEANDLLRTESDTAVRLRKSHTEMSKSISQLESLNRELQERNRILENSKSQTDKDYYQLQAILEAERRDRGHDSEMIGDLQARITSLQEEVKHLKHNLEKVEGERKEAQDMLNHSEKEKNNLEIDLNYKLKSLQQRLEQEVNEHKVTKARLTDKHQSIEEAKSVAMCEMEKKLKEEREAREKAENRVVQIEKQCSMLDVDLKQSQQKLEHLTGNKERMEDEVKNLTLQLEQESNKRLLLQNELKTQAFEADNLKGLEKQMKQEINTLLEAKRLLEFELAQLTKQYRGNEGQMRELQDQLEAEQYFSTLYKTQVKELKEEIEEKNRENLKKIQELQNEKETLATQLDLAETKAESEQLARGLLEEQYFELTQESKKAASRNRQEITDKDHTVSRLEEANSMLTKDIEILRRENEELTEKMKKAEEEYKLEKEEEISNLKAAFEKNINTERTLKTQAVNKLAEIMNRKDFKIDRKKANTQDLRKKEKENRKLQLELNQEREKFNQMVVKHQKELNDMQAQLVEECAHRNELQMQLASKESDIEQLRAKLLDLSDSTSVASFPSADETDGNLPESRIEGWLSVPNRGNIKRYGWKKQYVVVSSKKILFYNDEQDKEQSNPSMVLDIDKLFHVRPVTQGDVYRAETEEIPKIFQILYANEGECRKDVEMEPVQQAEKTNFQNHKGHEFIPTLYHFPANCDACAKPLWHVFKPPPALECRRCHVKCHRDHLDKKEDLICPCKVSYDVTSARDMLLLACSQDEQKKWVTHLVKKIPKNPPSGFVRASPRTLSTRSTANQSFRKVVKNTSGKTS
Source text: A) In the primary reaction, the Rho kinases phosphorylates a single serine or threonine residue in a synthetic FRET-peptide. This FRET-peptide is doubly labeled with a fluorophore at each end—coumarin (the FRET donor) on one end and fluorescein (the FRET acceptor) on the other—and also contains a single phosphorylation site which either overlaps with or lies adjacent to the proteolytic site. B) In the secondary reaction, a site-specific protease recognizes and cleaves the non-phosphorylated FRET-peptide. Cleavage disrupts FRET between the donor and acceptor fluorophores on the FRET-peptide, whereas uncleaved, phosphorylated FRET-peptides maintain FRET. Kinases phosphorylated FRET-peptides cannot be cleaved by the protease. […] Cleavage disrupts FRET and causes a decrease in the fluorescein fluorescence signal and a strong increase in the coumarin fluorescence signal. Therefore the extension of the phosphprylation can be measured by FRET-signal remaining the protease reaction. The assay uses a ratiometric method, which calculates the ratio of donor emission to acceptor emission (the emission ratio) after excitation of the donor fluorophore at 400 nm, to quantitate reaction progress.
All compounds were systematically screened against ROCK1 and ROCK2.
For `COc1ccc(CNC(=O)Nc2nc(-c3ccncc3)cs2)cc1.Cl` [Compound 1am-HCl, 1-(4-methoxybenzyl)-3-(4-(pyridin-4-yl)thiazol-2-yl)urea hydrochloride], the “ROCK1 % inhibition @ 50 μM” value is “ROCK1 % inhibition @ 50 μM: 15.26 ± 0.91”.

Staying with this test, now noted: read-out: IC50 ± SD (μM) ROCK1.
As to `C[C@H](NC(=O)Nc1nc(-c2ccncc2)cs1)c1cccc(Cl)c1` [Compound 1ce, (S)-1-(1-(3-chlorophenyl)ethyl)-3-(4-(pyridin-4-yl)thiazol-2-yl)urea], the IC50 is over 50 µM.
The same measure, in the same setting: the figure for `O=C(NCc1cccc(O)c1)Nc1nc(-c2ccncc2)cs1` [Compound 1bo-HCl, 1-(3-hydroxybenzyl)-3-(4-(pyridin-4-yl)thiazol-2-yl)urea] is 0.009 µM.

The same test, now with this note: read-out: ROCK1 % inhibition @ 50 μM; 50 μM compound.
For `O=C(Nc1nc(-c2ccncc2)cs1)Nc1ccccc1F` [Compound 6d, 1-(2-Fluorophenyl)-3-(4-(pyridin-4-yl)thiazol-2-yl)urea], the inhibition at 50 µM worked out at 13.3%.
The same measure, in the same setting: to `O=C(Nc1nc(-c2ccncc2)cs1)N1CCN(Cc2ccccc2)C[C@@H]1Cc1ccccc1` [Compound 12b, (S)-2,4-Dibenzyl-N-(4-(pyridin-4-yl)thiazol-2-yl)piperazine-1-carboxamide] belongs 24.3%.
On the same count and under the same terms, the figure for `O=C(Nc1ccccc1)Nc1nc(-c2ccncc2)cs1` [Compound 6a, 1-Phenyl-3-(4-(pyridin-4-yl)thiazol-2-yl)urea] is 10.4%; for `O=C(Nc1nc(-c2ccncc2)cs1)N1CCN(C(=O)c2ccco2)CC1` [Compound 12c, 4-(Furan-2-carbonyl)-N-(4-(pyridin-4-yl)thiazol-2-yl)piperazine-1-carboxamide] it is 35%.
Still for that read-out and setting: the figure for `O=C(NCc1cccc(OC(F)(F)F)c1)Nc1nc(-c2ccncc2)cs1` [Compound 1br, 1-(4-(Pyridin-4-yl)thiazol-2-yl)-3-(3-(trifluoromethoxy)benzyl)urea] is 7.48%.
Consider `O=C(Nc1nc(-c2ccncc2)cs1)N1CCN(c2ccncn2)CC1` [Compound 12d, N-(4-(Pyridin-4-yl)thiazol-2-yl)-4-(pyrimidin-4-yl)piperazine-1-carboxamide], for which the inhibition at 50 µM was 41.4%.
Still for that read-out and setting: to `O=C(Nc1nc(-c2ccncc2)cs1)N1CCN(CC2CCCO2)CC1` (centres unmarked) [Compound 12f, N-(4-(Pyridin-4-yl)thiazol-2-yl)-4-((tetrahydrofuran-2-yl)methyl)piperazine-1-carboxamide] belongs -0.21%.
Still for that read-out and setting: the figure for `O=C(NCc1nc2ccccc2[nH]1)Nc1nc(-c2ccncc2)cs1` [Compound 1cs, 1-((1H-Benzo[d]imidazol-2-yl)methyl)-3-(4-(pyridin-4-yl)thiazol-2-yl)urea] is 40.9%; for `O=C(Nc1nc(-c2ccncc2)cs1)N1CCN(c2cccnc2)CC1` [Compound 12e, 4-(Pyridin-3-yl)-N-(4-(pyridin-4-yl)thiazol-2-yl)piperazine-1-carboxamide] it is 14%.
Consider `O=C(Nc1nc(-c2ccncc2)cs1)Nc1ccc(F)cc1F` [Compound 6b, 1-(2,4-Difluorophenyl)-3-(4-(pyridin-4-yl)thiazol-2-yl)urea], for which the inhibition at 50 µM is 14.5%.
Same read-out and setting: to `COc1ccc([C@H](C)NC(=O)Nc2nc(-c3ccncc3)cs2)cc1` [Compound 1by, (S)-1-(1-(4-methoxyphenyl)ethyl)-3-(4-(pyridin-4-yl)thiazol-2-yl)urea] belongs 1.09%; to `COc1cc(CNC(=O)Nc2nc(-c3ccncc3)cs2)cc(OC)c1` [Compound 1bb, 1-(3,5-Dimethoxybenzyl)-3-(4-(pyridin-4-yl)thiazol-2-yl)urea], 9.95%; to `O=C(Nc1ccc(F)cc1)Nc1nc(-c2ccncc2)cs1` [Compound 6c, 1-(4-Fluorophenyl)-3-(4-(pyridin-4-yl)thiazol-2-yl)urea], 8.06%.
Same read-out and setting: to `O=C(Nc1nc(-c2ccncc2)cs1)NC1Cc2ccccc2C1` [Compound 1cr, 1-(2,3-Dihydro-1H-inden-2-yl)-3-(4-(pyridin-4-yl)thiazol-2-yl)urea] belongs 40.9%.
